From patent publication US20260138978A1, “POSITIVE ALLOSTERIC MODULATORS OF THE MUSCARINIC ACETYLCHOLINE RECEPTOR M1” (Vanderbilt University, priority 2022, published 2026)

Legend:
[1] = molecular target: T1, human mAChRM1 (Homo sapiens, UniProt P11229); experiment: mAChR M1 cell-based functional assay (calcium mobilization), agonist activity upon compound addition, Emax relative to acetylcholine maximum; conditions: for EC50 / Agonist Activity Human M1 EC50: calcium mobilization upon compound addition; for Emax: relative to the maximum for acetylcholine
T1 construct: host or cells: CHO-K1
T1 sequence (P11229 1-460): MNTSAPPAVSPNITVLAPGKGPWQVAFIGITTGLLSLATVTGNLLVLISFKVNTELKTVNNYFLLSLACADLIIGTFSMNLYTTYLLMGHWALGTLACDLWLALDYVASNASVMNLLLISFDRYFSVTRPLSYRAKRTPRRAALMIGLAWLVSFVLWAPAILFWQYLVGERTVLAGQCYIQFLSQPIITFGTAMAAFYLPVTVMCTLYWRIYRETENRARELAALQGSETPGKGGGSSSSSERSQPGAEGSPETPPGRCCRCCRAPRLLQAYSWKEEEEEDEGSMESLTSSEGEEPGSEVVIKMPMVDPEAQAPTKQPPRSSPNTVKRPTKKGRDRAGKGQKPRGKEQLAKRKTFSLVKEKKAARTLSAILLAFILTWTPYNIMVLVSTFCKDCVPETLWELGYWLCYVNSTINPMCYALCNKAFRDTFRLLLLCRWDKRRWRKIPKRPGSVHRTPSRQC
Method in brief: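 CHO-K1 cells stably expressing human M1 were loaded with Fluo-4 AM for 50 min at 37 °C. Compound was added 4 s into a 300 s FDSS read at 1 Hz, over 11-point 1:3 dilution curves. Agonism was taken as a concentration-dependent rise in calcium fluorescence ratio, with Emax expressed relative to the acetylcholine maximum from four-parameter logistic fits.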

[2] = molecular target: T1, human mAChRM1; experiment: mAChR M1 cell-based functional assay (calcium mobilization), positive allosteric modulator activity: increase in the EC20 acetylcholine response; conditions: for Emax: PAM mode; for EC50: read-out: PAM Activity Human M1 EC50
Method in brief: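 CHO-K1 cells stably expressing human M1, loaded with Fluo-4 AM; calcium flux recorded on FDSS at 1 Hz over 300 s following compound addition. PAM activity is the concentration-dependent increase of an EC20 acetylcholine response; EC50 and Emax from four-parameter logistic fits of 11-point, 1:3 concentration series.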

[3] = increase in the EC20 acetylcholine response

Row | SMILES | EC50 [1] [nM] | Emax [1] [%] | Emax [2] [%] | EC50 [2, 3] [nM] | Agonist Activity Human M1 EC50 [1] | PAM Activity Human M1 EC50 [2, 3]
1 | CC(C)COc1cc(-c2ccc(C(C)(C)O)cc2)cc(F)c1CN1Cc2ncccc2C1=O [Compound 14, 6-((3-Fluoro-4′-(2-hydroxypropan-2-yl)-5-isobutoxy-[1,1′-biphenyl]-4-yl)methyl)-6,7-dihydro-5H-pyrrolo[3,4-b]pyridin-5-one] |  |  | 76 | 2320 | inactive | 
2 | C[C@H](c1c(F)cc(-c2ccc(C(C)(C)O)c3nn(C)cc23)cc1F)N1Cc2ncccc2C1=O [Compound 94, (R)-6-(1-(2,6-difluoro-4-(7-(2-hydroxypropan-2-yl)-2-methyl-2H-indazol-4-yl)phenyl)ethyl)-6,7-dihydro-5H-pyrrolo[3,4-b]pyridin-5-one] |  |  | 60 | 1270 | inactive | 
3 | Cn1cc2c(-c3cc(F)c(CN4Cc5ncccc5C4=O)c(F)c3)ccc(C(C)(O)C(F)F)c2n1 (centres unmarked) [Compound 100, 6-(4-(7-(1,1-difluoro-2-hydroxypropan-2-yl)-2-methyl-2H-indazol-4-yl)-2,6-difluorobenzyl)-6,7-dihydro-5H-pyrrolo[3,4-b]pyridin-5-one] |  |  | 88 | 211 | inactive | 
4 | CCn1cc2c(-c3cc(F)c(CN4Cc5ncccc5C4=O)c(F)c3)ccc(C(C)(C)O)c2n1 [Compound 99, 6-(4-(2-ethyl-7-(2-hydroxypropan-2-yl)-2H-indazol-4-yl)-2,6-difluorobenzyl)-6,7-dihydro-5H-pyrrolo[3,4-b]pyridin-5-one] | 4110 | 13 | 85 | 176 |  | 
5 | CC(C)(O)c1ccc(-c2cc(F)c(CN3Cc4ncccc4C3=O)c(F)c2)cc1F [Compound 7, 6-((3,3′,5-trifluoro-4′-(2-hydroxypropan-2-yl)-[1,1′-biphenyl]-4-yl)methyl)-6,7-dihydro-5H-pyrrolo[3,4-b]pyridin-5-one] |  |  | 71 | 2670 | inactive | 
6 | Cn1cc2c(-c3cc(F)c(CN4Cc5ncccc5C4=O)c(F)c3)ccc(C(C)(O)CS(C)(=O)=O)c2n1 (centres unmarked) [Compound 97, 6-(2,6-difluoro-4-(7-(2-hydroxy-1-(methylsulfonyl)propan-2-yl)-2-methyl-2H-indazol-4-yl)benzyl)-6,7-dihydro-5H-pyrrolo[3,4-b]pyridin-5-one] |  |  | 87 | 872 | inactive | 
7 | Cn1cc2c(-c3ccc(CN4Cc5ncccc5C4=O)c(F)c3)ccc(C(C)(C)O)c2n1 [Compound 57, 6-(2-fluoro-4-(7-(2-hydroxypropan-2-yl)-2-methyl-2H-indazol-4-yl)benzyl)-6,7-dihydro-5H-pyrrolo[3,4-b]pyridin-5-one] | 5070 | 11 | 69 | 181 |  | 
8 | Cc1cc(-c2ccc(C(C)(C)O)cc2)cc(F)c1CN1Cc2ncccc2C1=O [Compound 9, 6-((3-fluoro-4′-(2-hydroxypropan-2-yl)-5-methyl-[1,1′-biphenyl]-4-yl)methyl)-6,7-dihydro-5H-pyrrolo[3,4-b]pyridin-5-one] |  |  | 76 | 1330 | inactive | 
9 | CC(C)(O)c1cc(-c2cc(F)c(CN3Cc4ncccc4C3=O)c(F)c2)cc2c1OCO2 [Compound 17, 6-(2,6-difluoro-4-(7-(2-hydroxypropan-2-yl)benzo[d][1,3]dioxol-5-yl)benzyl)-6,7-dihydro-5H-pyrrolo[3,4-b]pyridin-5-one] |  |  |  |  | inactive | inactive
10 | CC(C)(O)c1ccc(-c2ccc(CN3Cc4ncccc4C3=O)c(F)c2)c2ccccc12 [Compound 73, 6-(2-fluoro-4-(4-(2-hydroxypropan-2-yl)naphthalen-1-yl)benzyl)-6,7-dihydro-5H-pyrrolo[3,4-b]pyridin-5-one] |  |  | 58 | ≥ 10000 | inactive | 
11 | Cc1cc(-c2cc3c(c(C(C)(C)O)c2)OCO3)cc(F)c1CN1Cc2ncccc2C1=O [Compound 18, 6-(2-fluoro-4-(7-(2-hydroxypropan-2-yl)benzo[d][1,3]dioxol-5-yl)-6-methylbenzyl)-6,7-dihydro-5H-pyrrolo[3,4-b]pyridin-5-one] |  |  | 49 | 6370 | inactive | 
12 | Cn1cc2cc(-c3cc(F)c(CN4Cc5ncccc5C4=O)c(F)c3)cc(C(C)(C)O)c2n1 [Compound 33, 6-(2,6-difluoro-4-(7-(2-hydroxypropan-2-yl)-2-methyl-2H-indazol-5-yl)benzyl)-6,7-dihydro-5H-pyrrolo[3,4-b]pyridin-5-one] | ≥ 10000 | 21 | 66 | 297 |  | 
13 | Cn1cc2c(-c3cc(F)c(CN4Cc5ncccc5C4=O)c(F)c3)cc(C(C)(C)O)cc2n1 [Compound 24, 6-(2,6-Difluoro-4-(6-(2-hydroxypropan-2-yl)-2-methyl-2H-indazol-4-yl)benzyl)-6,7-dihydro-5H-pyrrolo[3,4-b]pyridin-5-one] |  |  | 81 | 1920 | inactive | 
14 | CC(C)(O)c1ccc(-c2ccc(CN3Cc4ncccc4C3=O)c(F)c2)cc1 [Compound 13, 6-((3-fluoro-4′-(2-hydroxypropan-2-yl)-[1,1′-biphenyl]-4-yl)methyl)-6,7-dihydro-5H-pyrrolo[3,4-b]pyridin-5-one] |  |  | 72 | 2120 | inactive | 

Now from value to compound:

Row | EC50 [1] [nM] | Emax [1] [%] | Emax [2] [%] | EC50 [2, 3] [nM] | Agonist Activity Human M1 EC50 [1] | PAM Activity Human M1 EC50 [2, 3] | SMILES
15 | ≥ 10000 | 23 | 80 | 1030 |  |  | Cn1cc2c(-c3cc(F)c(CN4Cc5cccnc5C4=O)c(N4CCC4)c3)ccc(C(C)(C)O)c2n1 [Compound 135, 6-(2-(azetidin-1-yl)-6-fluoro-4-(7-(2-hydroxypropan-2-yl)-2-methyl-2H-indazol-4-yl)benzyl)-5,6-dihydro-7H-pyrrolo[3,4-b]pyridin-7-one]
16 |  |  | 74 | 3360 | inactive |  | [2H]C1([2H])c2ncccc2C(=O)N1Cc1c(F)cc(-c2ccc(C(C)(C)O)c3nn(C)cc23)cc1C1CCCC1 [Compound 152, 6-(2-cyclopentyl-6-fluoro-4-(7-(2-hydroxypropan-2-yl)-2-methyl-2H-indazol-4-yl)benzyl)-6,7-dihydro-5H-pyrrolo[3,4-b]pyridin-5-one-7,7-d2]
17 |  |  | 84 | 1870 | inactive |  | Cn1cc2c(-c3cnc(CN4Cc5cccnc5C4=O)c(F)c3)ccc(C(C)(C)O)c2n1 [Compound 124, 6-((3-fluoro-5-(7-(2-hydroxypropan-2-yl)-2-methyl-2H-indazol-4-yl)pyridin-2-yl)methyl)-5,6-dihydro-7H-pyrrolo[3,4-b]pyridin-7-one]
18 |  |  | 58 | ≥ 10000 | inactive |  | COc1cc(-c2ccc(C(C)(C)O)cc2)cc(F)c1CN1Cc2cccnc2C1=O [Compound 119, 6-((3-fluoro-4′-(2-hydroxypropan-2-yl)-5-methoxy-[1,1′-biphenyl]-4-yl)methyl)-5,6-dihydro-7H-pyrrolo[3,4-b]pyridin-7-one]
19 |  |  | 74 | 2590 | inactive |  | Cn1cc2c(-c3cc(F)c(CN4Cc5ncc(C6CC6)cc5C4=O)c(F)c3)ccc(C(C)(C)O)c2n1 [Compound 175, 3-cyclopropyl-6-(2,6-difluoro-4-(7-(2-hydroxypropan-2-yl)-2-methyl-2H-indazol-4-yl)benzyl)-6,7-dihydro-5H-pyrrolo[3,4-b]pyridin-5-one]
20 |  |  | 80 | 521 | inactive |  | Cc1cc(-c2ccc(C(C)(C)O)c3nn(C)cc23)ccc1CN1Cc2cccc(F)c2C1=O [Compound 161, 7-fluoro-2-(4-(7-(2-hydroxypropan-2-yl)-2-methyl-2H-indazol-4-yl)-2-methylbenzyl)isoindolin-1-one]
21 | ≥ 10000 | 20 | 86 | 231 |  |  | Cn1cc2c(-c3cc(F)c(CN4Cc5cccnc5C4=O)c(Cl)c3)ccc(C(C)(C)O)c2n1 [Compound 122, 6-(2-Chloro-6-fluoro-4-(7-(2-hydroxypropan-2-yl)-2-methyl-2H-indazol-4-yl)benzyl)-5,6-dihydro-7H-pyrrolo[3,4-b]pyridin-7-one]
22 | 4420 | 72 | 79 | 61 |  |  | Cn1cc2c(-c3cc(F)c(CN4Cc5cccnc5C4=O)c(C4CC4)c3)ccc(C(C)(C)O)c2n1 [Compound 133, 6-(2-cyclopropyl-6-fluoro-4-(7-(2-hydroxypropan-2-yl)-2-methyl-2H-indazol-4-yl)benzyl)-5,6-dihydro-7H-pyrrolo[3,4-b]pyridin-7-one]
23 |  |  | 43 | ≥ 10000 | inactive |  | Cn1cc2c(-c3cnc(CN4Cc5ncccc5C4=O)nc3)ccc(C(C)(C)O)c2n1 [Compound 110, 6-[[5-[7-(1-Hydroxy-1-methyl-ethyl)-2-methyl-indazol-4-yl]pyrimidin-2-yl]methyl]-7H-pyrrolo[3,4-b]pyridin-5-one]
